What was measured:
APP/PS1 mice [1] = assay: Morris water maze (MWM), learning and memory in APP/PS1 mice; type: in vivo, mouse; conditions: 100 mg/kg/day via drinking water; for spatial memory, cognitive and memory formation disability: versus unfed APP/PS1 mice
Experimental: (§1) To confirm the therapeutic effect of the novel ASM inhibitory compounds, the novel ASM inhibitory compound or AMI were fed via drinking water at a dose of 100 mg/kg/day to mice at 5.5 months of age. Three months after the feeding, behavioral analysis on the mice was performed, followed by sampling of mouse brain tissues (FIG. 3).
(§2) Morris water maze (MWM) and fear conditioning experiments were conducted to identify potential effects on learning and memory. For MWM, the mice were learned the task four times a day for 10 days, followed by the removal of the platform at the 11th day and subsequently a probe trial. On the first day of the fear conditioning, the mice were placed in the conditioning chamber and subjected to sound stimulation (10 kHz, 70 dB) and electrical stimulation (0.3 mA, 1s). On the second day, their memory was checked without stimulation in the same conditioning chamber as on the first day. On the third day, memory tests were conducted for fear when only sound stimulation was given in another conditioning chamber. Open field tests and dark & light tests were conducted to assess activity and anxiety. In the open field test, the mice were placed in a square box for 10 minutes to measure their overall activity and time spent wandering the wall and center. In the dark & light test, the mice were placed in a rectangular box composed of a dark box and a bright box for 10 minutes to measure the time spent in each box, the number of round trips, and the time when the mice entered the bright box for the first time.
In order to determine the potential effect of the novel ASM inhibitory compound of the present invention on learning and cognition in the animal models of Alzheimer's disease, the MWM (Morris water maze) and the fear conditioning test were performed, respectively.

[2] = biological target: T1, ASM (acid sphingomyelinase) (Mus musculus, UniProt Q04519); assay: ASM concentration levels in plasma and brain tissue of APP/PS1 mice after feeding via drinking water; type: in vivo; conditions: 100 mg/kg/day via drinking water; for ASM concentration level in brain tissues / ASM concentration level in plasma: 9.5 month-old APP/PS1 mice, versus unfed APP/PS1 mice
T1 construct: from tissue; host or cells: plasma and brain tissue of APP/PS1 transgenic mice (C57BL/6 background)
T1 sequence (Q04519 45-627): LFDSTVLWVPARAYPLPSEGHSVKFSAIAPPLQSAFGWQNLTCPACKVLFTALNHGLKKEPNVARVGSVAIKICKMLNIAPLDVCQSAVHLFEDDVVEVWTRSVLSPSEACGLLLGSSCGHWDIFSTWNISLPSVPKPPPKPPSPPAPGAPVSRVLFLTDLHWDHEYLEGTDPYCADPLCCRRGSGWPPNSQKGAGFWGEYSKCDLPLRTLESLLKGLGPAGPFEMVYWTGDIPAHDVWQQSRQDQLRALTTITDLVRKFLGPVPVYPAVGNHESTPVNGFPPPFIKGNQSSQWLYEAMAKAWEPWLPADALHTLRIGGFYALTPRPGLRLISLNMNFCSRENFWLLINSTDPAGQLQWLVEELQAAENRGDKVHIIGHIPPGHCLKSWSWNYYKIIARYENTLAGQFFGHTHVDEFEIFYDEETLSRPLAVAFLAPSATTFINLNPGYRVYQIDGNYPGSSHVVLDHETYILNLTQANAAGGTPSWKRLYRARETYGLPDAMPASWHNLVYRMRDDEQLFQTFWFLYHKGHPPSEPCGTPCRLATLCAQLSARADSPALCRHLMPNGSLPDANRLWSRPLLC
From the text: IACUC (Kyungpook National University Institutional Animal Care and Use Committee) approved the present mouse experiment. A transgenic mouse line overexpressing APPswe (hAPP695swe) or PS1 (presenilin-1M146V) was used based on C57BL/6 mouse (Charles River, UK) (hereinafter, APP mouse: APPswe-overexpressing mouse, PS1 mouse: presenilin-1M146V overexpressing mouse; GlaxoSmithKline). To confirm the therapeutic effect of the novel ASM inhibitory compounds, the novel ASM inhibitory compound or AMI were fed via drinking water at a dose of 100 mg/kg/day to mice at 5.5 months of age. Three months after the feeding, behavioral analysis on the mice was performed, followed by sampling of mouse brain tissues (FIG. 3). The concentration levels of ASM were measured as follows. Specifically, a microliter mouse plasma, brain tissue and 3 μl of fibroblast samples were mixed with ASM activity buffer and stored at 37° C. 114 μl of ethanol was added to terminate the hydrolysis reaction, followed by centrifugation. 30 μl of the supernatant was transferred to a glass vial, of which 5 μl was applied to the UPLC system. The ASM concentration levels were quantified by comparison with Bodipy (aminoacetaldehyde) conjugated with sphingomyelin and ceramide. Extraction and quantification of the sphingomyelin and ceramide were performed by extracting lipids from known method samples and resuspending the dried lipid extract in 25 μl of 0.2% Igepal CA-630 (Sigma-Aldrich). Each lipid level was quantified using the UPLC system. Using an experimental animal model APP/PS1 mouse for Alzheimer's disease patients, ASM concentration levels in plasma and brain tissues were measured after administration of AMI, which is the most widely used as an ASM inhibitor, and the novel ASM inhibitory compound of the Chemical Formula 2.

APP/PS1 mice [3] = assay: Amyloid-β deposition in brain of APP/PS1 mice (thioflavin S staining, Aβ40 and Aβ42 immunofluorescence); type: in vivo, mouse; conditions: 100 mg/kg/day via drinking water; for Aβ40 deposition / Aβ42 deposition: brain tissue immunofluorescence; for Aβ40 deposition / Aβ42 deposition / fibrillary Aβ deposition (thioflavin S): versus APP/PS1 mice; for fibrillary Aβ deposition (thioflavin S): cerebral cortex and hippocampus
From the text: IACUC (Kyungpook National University Institutional Animal Care and Use Committee) approved the present mouse experiment. A transgenic mouse line overexpressing APPswe (hAPP695swe) or PS1 (presenilin-1M146V) was used based on C57BL/6 mouse (Charles River, UK) (hereinafter, APP mouse: APPswe-overexpressing mouse, PS1 mouse: presenilin-1M146V overexpressing mouse; GlaxoSmithKline).
as §1
(§3) After fixing the cerebrum and hippocampus of the test mice, 0.5% thioflavin S (Sigma-Aldrich), anti-20G10 antibodies (Mouse, 1:1000) against Aβ, 42 and anti-G30 antibodies (rabbit, 1:1000) against Aβ, 40, anti-GFAP antibodies (rabbit, 1:500, DAKO) were cultured together. The above sites were analyzed using a laser scanning confocal microscope equipped with Fluoview SV1000 imaging software (Olympus FV1000, Japan) or an Olympus BX51 microscope. Percentage of area of stained area to total tissue area was quantified and analyzed using Metamorph software (Molecular Devices).
In order to confirm the effect of the novel ASM inhibitory compound of the Chemical Formula 2 on the lesion of Alzheimer's disease, the ASM inhibitory compound of the Chemical Formula 2 and AMI were administered orally for four months, respectively, as shown in FIG. 3.
To begin with, the profile of Aβ of Alzheimer's disease was identified. First, according to known methods in the art, the cerebral cortex and hippocampus of the mice were stained with thioflavin S (ThioS), confirming the fibrillary amyloid-β deposition. In addition, amyloid-β deposition was confirmed by carrying out the Aβ40 and Aβ42 immunofluorescence.

[4] = biological target: T2, ASM (acid sphingomyelinase) (Homo sapiens, UniProt P17405); assay: ASM activity in fibroblasts derived from Alzheimer's disease patients (PS1 fibroblasts); type: cell-based; set-up: dose or concentration left out as unconfirmed; conditions: for change of ASM activity: PS1 fibroblasts with increased ASM activity, versus untreated PS1 fibroblasts
T2 construct: fibroblasts (PS1 fibroblasts) derived from Alzheimer's disease patients, followed by the measurement of the change of ASM activity; host or cells: human fibroblast cell lines (PS1, from Alzheimer's disease patients)
T2 sequence (P17405 47-631): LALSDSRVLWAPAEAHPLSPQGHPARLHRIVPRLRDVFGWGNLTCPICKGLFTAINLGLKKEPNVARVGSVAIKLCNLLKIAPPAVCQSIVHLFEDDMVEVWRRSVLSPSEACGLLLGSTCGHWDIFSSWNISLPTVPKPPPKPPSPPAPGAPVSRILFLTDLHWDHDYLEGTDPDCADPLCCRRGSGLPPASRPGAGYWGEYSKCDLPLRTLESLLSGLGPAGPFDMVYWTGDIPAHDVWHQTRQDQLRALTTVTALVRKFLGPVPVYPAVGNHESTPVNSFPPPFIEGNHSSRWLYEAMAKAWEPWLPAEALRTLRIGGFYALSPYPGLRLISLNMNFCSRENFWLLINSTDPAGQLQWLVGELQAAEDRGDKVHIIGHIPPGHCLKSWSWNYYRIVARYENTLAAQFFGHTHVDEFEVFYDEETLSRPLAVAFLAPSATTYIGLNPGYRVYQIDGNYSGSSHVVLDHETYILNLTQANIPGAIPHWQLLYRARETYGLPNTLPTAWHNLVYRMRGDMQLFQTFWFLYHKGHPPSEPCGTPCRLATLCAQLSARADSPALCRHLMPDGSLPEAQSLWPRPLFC
Experimental: Human fibroblast cell lines (normal and PS1) were obtained from Coriell Institute and cultured in DMEM containing 15% FBS under the condition of 5% CO2 at 37° C. Subsequently, the cell lines were treated with the ASM inhibitory compound of the Chemical Formula 1, amitriptyline (AMI) and FTY720, followed by measuring the change of ASM activity. The concentration levels of ASM were measured as follows. Specifically, a microliter mouse plasma, brain tissue and 3 μl of fibroblast samples were mixed with ASM activity buffer and stored at 37° C. 114 μl of ethanol was added to terminate the hydrolysis reaction, followed by centrifugation. 30 μl of the supernatant was transferred to a glass vial, of which 5 μl was applied to the UPLC system. The ASM concentration levels were quantified by comparison with Bodipy (aminoacetaldehyde) conjugated with sphingomyelin and ceramide. Extraction and quantification of the sphingomyelin and ceramide were performed by extracting lipids from known method samples and resuspending the dried lipid extract in 25 μl of 0.2% Igepal CA-630 (Sigma-Aldrich). Each lipid level was quantified using the UPLC system. In order to confirm the ASM inhibitory effect of the compound developed according to the present invention, the ASM inhibitory compound of the Chemical Formula 2, AMI and FTY720 were treated […] concentration, respectively, in the fibroblasts (PS1 fibroblasts) derived from Alzheimer's disease patients, followed by the measurement of the change of ASM activity.

APP/PS1 mice [5] = assay: Western blotting of autophagy-related proteins (LC3, Beclin-1, cathepsin D, p62) in brain tissue of APP/PS1 mice; type: in vivo, mouse
Experimental: as §1
Expression of the following genes was analyzed using Western blotting. First, antibodies against LC3, Becklin-1, p62 (All of them were purchased from Cell Signaling Technologies), Cathepsin D (R&D systems) and β-actin (Santa Cruz) were used, while densitometric quantification was performed using ImageJ Software (US National Institutes of Health).
In order to verify the mechanism of the ASM inhibitory compound of the Chemical Formula 2 in the autophagy-related pathways upon its administration, the conversion of LC3-I into LC3-II, and the expression levels of Beclin-1, cathepsin D and p62 in the brain tissue samples of the WT mice, APP/PS1 mice, and APP/PS1 mice treated with the ASM inhibitory compound of the Chemical Formula 2 which were 9.5 months old, respectively, were confirmed by Western blotting experiments.

APP/PS1 mice [6] = assay: Fear conditioning test in APP/PS1 mice; type: in vivo, mouse; conditions: 100 mg/kg/day via drinking water
Experimental: as §1
as §2, with “In the dark & light test, the mice were placed in a rectangular box composed of a dark box and a bright box for 10 minutes to measure the time spent in each box, the number of round trips, and the time when the mice entered the bright box for the first time.” left out

APP/PS1 mice [7] = assay: Open field test and dark & light test (activity and anxiety) in APP/PS1 mice; type: in vivo, mouse; conditions: 100 mg/kg/day via drinking water, versus APP/PS1 mice
Experimental: as §1
as §2, with “In the dark & light test, the mice were placed in a rectangular box composed of a dark box and a bright box for 10 minutes to measure the time spent in each box, the number of round trips, and the time when the mice entered the bright box for the first time.” left out

APP/PS1 mice [8] = assay: Real-time quantitative PCR of inflammatory cytokines (TNF-α, IL-1b, IL-6) in brain of APP/PS1 mice; type: in vivo, mouse; conditions: mRNA, cerebral cortex, 100 mg/kg/day via drinking water, versus wild-type
Experimental: as §1
Real-time quantitative PCR was used to measure the expression levels of inflammatory cytokines (TNF-α, IL-1b, and IL-6). Total RNAs were extracted from brain tissues using RNeasy Plus mini kit (Qiagen, Korea, Ltd.), while cDNAs were synthesized from 5 μg of total RNAs using a kit from Clontech (Mountain View, Calif.). Also, using Corbett research RG-6000 real-time PCR instrument, PCR was performed at 95° C. for 10 minutes; 95° C. for 10 seconds; 58° C. for 15 seconds; 72° C. for 20 seconds as one cycle, while real-time quantitative PCR was performed in which 40 cycles were repeated.
(§4) In order to determine the effect of the novel ASM inhibitory compounds according to the present invention on the change of nerve inflammation in the APP/PS1 mice, the present inventors observed a change in astrocytes of their brains.

APP/PS1 mice [9] = assay: Astrocytes (GFAP immunofluorescence) in cerebral cortex of APP/PS1 mice; type: in vivo, mouse; conditions: 100 mg/kg/day via drinking water, versus APP/PS1 mice
Experimental: as §1, §3, §4

[10] = 9.5 months old APP/PS1 mice, treated versus untreated

Row | SMILES | spatial memory, cognitive and memory formation disability (APP/PS1 mice [1]) | ASM concentration level in brain tissues [2] | ASM concentration level in plasma [2] | Aβ40 deposition (APP/PS1 mice [3]) | Aβ42 deposition (APP/PS1 mice [3]) | fibrillary Aβ deposition (thioflavin S) (APP/PS1 mice [3]) | change of ASM activity [4] | other results
1 | CN(C)CCC=C1c2ccccc2CCc2ccccc21 [AMI, amitriptyline, reference compound] | improved | remarkably low | remarkably low | significantly lower | significantly lower | significantly lower | markedly reduced | 
2 | CCCCCCCCCCCCn1cc(C(N)(CO)CO)nn1 [Chemical Formula 2, 2-amino-2-(1-dodecyl-1H-1,2,3-triazol-4-yl)propane-1,3-diol] | improved | remarkably low | remarkably low | significantly lower | significantly lower | significantly lower | markedly reduced | cognitive improvement compared with AMI (APP/PS1 mice [1]): more pronounced; conversion of LC3-I to LC3-II (APP/PS1 mice [5]; [10]): decreased; expression level of cathepsin D (APP/PS1 mice [5]; [10]): decreased; expression level of p62 (APP/PS1 mice [5]; [10]): decreased; expression of Beclin-1 (APP/PS1 mice [5]; 9.5 months old, WT, APP/PS1 and treated APP/PS1 mice compared): little difference; memory in the fear conditioning test (contextual and tone tasks) (APP/PS1 mice [6]): effect of improving the memory; activity and anxiety (APP/PS1 mice [7]): significantly improved; ASM inhibition in plasma and brain tissues compared with AMI ([2]; APP/PS1 mice): more significantly effective in inhibiting ASM activity than AMI; amyloid-β deposition compared with mice treated with AMI (APP/PS1 mice [3]): more remarkably reduced; gene expression of IL-1b (APP/PS1 mice [8]): restored to their normal levels; gene expression of IL-6 (APP/PS1 mice [8]): restored to their normal levels; gene expression of TNF-α (APP/PS1 mice [8]): restored to their normal levels; ASM inhibitory effect compared with the other substances (AMI, FTY720) ([4]; PS1 fibroblasts): more remarkably effective in inhibiting ASM activity than the other substances; activity of astrocytes (GFAP) (APP/PS1 mice [9]): significantly decreased
3 | CCCCCCCCc1ccc(CCC(N)(CO)CO)cc1 [FTY720, reference compound] |  |  |  |  |  |  | markedly reduced | 

From patent US9724334B1, “Method for treating a neurodegenerative disease or depression comprising administering derivatives of 2-amino-2-(1-dodecyl-1H-1,2,3-triazol-4-yl)propane-1,3-diol” (Kyungpook National University Industry-Academic Cooperation …, priority 2016, dated 2017)
